Results on 6 compounds are retold here after ChEMBL document CHEMBL1240303, “Inhibiting transcription of chromosomal DNA with antigene peptide nucleic acids” (2005).

In general, inhibition refers to the share of the control response that was lost under treatment.

Assay [1] relates to T47D. Description: Reduction in cell proliferation of human T47D cells expressing human progesterone receptor by FACS method. It is filed as functional, cell-based. (A flow cytometer gives signals particle by particle.)
Assay [2] concerns T47D. Description: Increase in Ezrin mRNA expression in human T47D cells expressing human progesterone receptor by RT-PCR relative to untreated control. In kind it is functional.
The test system of assay [3] is T47D. Description: Induction of morphology changes in human T47D cells expressing human progesterone receptor assessed as increase in cell height by confocal microscopy. In kind it is functional, cell-based.
Assay [4] deals with T47D. The assay can be described thus: Inhibition of human progesterone receptor A protein expression transfected in human T47D cells at 200 nM by Western blot. It is filed as functional.
The subject of assay [5] is T47D. The assay can be described thus: Inhibition of human progesterone receptor B protein expression transfected in human T47D cells at 200 nM by Western blot. It is filed as functional.
The subject of assay [6] is T47D. The assay can be described thus: Inhibition of human progesterone receptor A gene expression transfected in human T47D cells at 200 nM by RT-PCR. In kind it is functional, cell-based.
Assay [7] has as its system T47D. Description: Inhibition of human progesterone receptor B gene expression transfected in human T47D cells at 200 nM by RT-PCR. In kind it is functional, cell-based.
For assay [8], the system named is T47D. The assay can be described thus: Inhibition of human progesterone receptor A protein expression transfected in human T47D cells at 200 nM in presence of 10 nM of estradiol by Western blot. It is filed as functional, cell-based. Background: In western blotting, separated proteins are transferred to a membrane and probed.
Assay [9] has as its system T47D. Description: Inhibition of human progesterone receptor B protein expression transfected in human T47D cells at 200 nM in presence of 10 nM of estradiol by Western blot. In kind it is functional, cell-based.

Active and inactive are the calls of the source. The rule behind the calls is not given here.

Regarding `Cc1cn([C@@H]2O[C@H](COP(=O)(O)O[C@H]3[C@@H](O)[C@H](n4cnc5c(=O)[nH]c(N)nc54)O[C@@H]3COP(=O)(O)O[C@H]3[C@@H](O)[C@H](n4ccc(=O)[nH]c4=O)O[C@@H]3COP(=O)(O)O[C@H]3C[C@H](n4cnc5c(N)ncnc54)O[C@@H]3COP(=O)(O)O[C@H]3[C@@H](O)[C@H](N4CC=C(N)NC4=O)O[C@@H]3COP(=O)(O)O[C@H]3[C@@H](O)[C@H](n4ccc(=O)[nH]c4=O)O[C@@H]3COP(=O)(O)O[C@H]3[C@@H](O)[C@H](N4CC=C(N)NC4=O)O[C@@H]3COP(=O)(O)O[C@H]3C[C@H](n4cnc5c(=O)[nH]c(N)nc54)O[C@@H]3COP(=O)(O)O[C@H]3[C@@H](O)[C@H](n4ccc(N)nc4=O)O[C@@H]3COP(=O)(O)O[C@H]3[C@@H](O)[C@H](n4ccc(N)nc4=O)O[C@@H]3COP(=O)(O)O[C@H]3[C@@H](O)[C@H](n4ccc(N)nc4=O)O[C@@H]3COP(=O)(O)O[C@H]3[C@@H](O)[C@H](n4ccc(N)nc4=O)O[C@@H]3COP(=O)(O)O[C@H]3[C@@H](O)[C@H](n4ccc(=O)[nH]c4=O)O[C@@H]3COP(=O)(O)O[C@H]3[C@@H](O)[C@H](n4cnc5c(=O)[nH]c(N)nc54)O[C@@H]3COP(=O)(O)O[C@H]3[C@@H](O)[C@H](n4ccc(=O)[nH]c4=O)O[C@@H]3COP(=O)(O)O[C@H]3C[C@H](n4ccc(=O)[nH]c4=O)O[C@@H]3COP(=O)(O)O[C@H]3[C@@H](O)[C@H](n4cnc5c(=O)[nH]c(N)nc54)O[C@@H]3COP(=O)(O)O[C@H]3[C@@H](O)[C@H](n4ccc(=O)[nH]c4=O)O[C@@H]3COP(=O)(O)O[C@H]3[C@@H](O)[C@H](n4cnc5c(=O)[nH]c(N)nc54)O[C@@H]3COP(=O)(O)O[C@H]3[C@@H](O)[C@H](n4cnc5c(=O)[nH]c(N)nc54)O[C@@H]3CO)[C@@H](OP(=O)(O)OC[C@H]3O[C@@H](n4cc(C)c(=O)[nH]c4=O)C[C@@H]3O)[C@H]2O)c(=O)[nH]c1=O`, the outcome in the assay with T47D [1] and in the assay on T47D [3] was Active. Besides, the “fold change (FC)” value in the assay on T47D [2] came to 5.5.

In the case of `Cc1cn(CC(=O)N(CCNCC(=O)N(CCNC(=O)CN(CCNC(=O)CN(CCNC(=O)CN(CCNC(=O)CN(CCNC(=O)CN(CCNC(=O)CN(CCNC(=O)CN(CCNC(=O)CN(CCNC(=O)CN(CCNC(=O)CN(CCNC(=O)CN(CCNC(=O)CNC(=O)[C@@H](N)CCCCN)C(=O)Cn2cc(C)c(=O)[nH]c2=O)C(=O)Cn2cnc3nc(N)[nH]c(=O)c32)C(=O)Cn2c(N)ccnc2=O)C(=O)Cn2c(N)ccnc2=O)C(=O)Cn2c(N)ccnc2=O)C(=O)Cn2c(N)ccnc2=O)C(=O)Cn2c(N)ccnc2=O)C(=O)Cn2cnc3c(N)ncnc32)C(=O)Cn2cnc3nc(N)[nH]c(=O)c32)C(=O)Cn2cnc3c(N)ncnc32)C(=O)Cn2c(N)ccnc2=O)C(=O)Cn2cnc3c(N)ncnc32)CC(=O)NCCN(CC(=O)NCCN(CC(=O)NCCN(CC(=O)NCCN(CC(=O)NCCN(CC(=O)NCCN(CC(=O)N[C@@H](CCCCN)C(=O)O)C(=O)Cn2c(N)ccnc2=O)C(=O)Cn2cnc3nc(N)[nH]c(=O)c32)C(=O)Cn2cnc3nc(N)[nH]c(=O)c32)C(=O)Cn2cc(C)c(=O)[nH]c2=O)C(=O)Cn2c(N)ccnc2=O)C(=O)Cn2cnc3nc(N)[nH]c(=O)c32)c(=O)[nH]c1=O`, the inhibition entry with T47D [4] and in the assay on T47D [5] was “inactive” in each case.

In the case of `Cc1cn(CC(=O)N(CCNC(=O)CN(CCNC(=O)CN(CCNC(=O)CN(CCNC(=O)CN(CCNC(=O)CN(CCNC(=O)CN(CCNC(=O)CNC(=O)[C@@H](N)CCCCN)C(=O)Cn2c(N)ccnc2=O)C(=O)Cn2cnc3c(N)ncnc32)C(=O)Cn2c(N)ccnc2=O)C(=O)Cn2cnc3nc(N)[nH]c(=O)c32)C(=O)Cn2cnc3c(N)ncnc32)C(=O)Cn2cc(C)c(=O)[nH]c2=O)CC(=O)NCCN(CC(=O)NCCN(CC(=O)NCCN(CC(=O)NCCN(CC(=O)NCCN(C(=O)CNCCN(CC(=O)NCCN(CC(=O)NCCN(CC(=O)NCCN(CC(=O)NCCN(CC(=O)NCCN(CC(=O)NCCN(CC(=O)N[C@@H](CCCCN)C(=O)O)C(=O)Cn2cc(C)c(=O)[nH]c2=O)C(=O)Cn2cc(C)c(=O)[nH]c2=O)C(=O)Cn2cc(C)c(=O)[nH]c2=O)C(=O)Cn2cnc3nc(N)[nH]c(=O)c32)C(=O)Cn2cc(C)c(=O)[nH]c2=O)C(=O)Cn2cnc3c(N)ncnc32)C(=O)Cn2c(N)ccnc2=O)C(=O)Cn2cnc3nc(N)[nH]c(=O)c32)C(=O)Cn2cc(C)c(=O)[nH]c2=O)C(=O)Cn2c(N)ccnc2=O)C(=O)Cn2cc(C)c(=O)[nH]c2=O)C(=O)Cn2cc(C)c(=O)[nH]c2=O)c(=O)[nH]c1=O`, the inhibition entry with T47D [4] and in the assay on T47D [5] was “inactive” each time. The result in the assay on T47D [1] and with T47D [3] was inactive.

Regarding `Cc1cn(CC(=O)N(CCNC(=O)CNC(=O)[C@@H](N)CCCCN)CC(=O)NCCN(CC(=O)NCCN(CC(=O)NCCN(CC(=O)NCCN(CC(=O)NCCN(CC(=O)NCCN(CC(=O)NCCN(CC(=O)NCCN(CC(=O)NCCN(CC(=O)NCCN(CC(=O)NCCN(CC(=O)NCCN(CC(=O)NCCN(CC(=O)NCCN(CC(=O)NCCN(CC(=O)NCCN(CC(=O)NCCN(CC(=O)NCCN(CC(=O)N[C@@H](CCCCN)C(=O)O)C(=O)Cn2ccc(N)nc2=O)C(=O)Cn2cnc3c(=O)[nH]c(N)nc32)C(=O)Cn2cnc3c(=O)[nH]c(N)nc32)C(=O)Cn2cc(C)c(=O)[nH]c2=O)C(=O)Cn2cnc3c(N)ncnc32)C(=O)Cn2cnc3c(=O)[nH]c(N)nc32)C(=O)Cn2cc(C)c(=O)[nH]c2=O)C(=O)Cn2cc(C)c(=O)[nH]c2=O)C(=O)Cn2cnc3c(=O)[nH]c(N)nc32)C(=O)Cn2cnc3c(N)ncnc32)C(=O)Cn2cnc3c(=O)[nH]c(N)nc32)C(=O)Cn2ccc(N)nc2=O)C(=O)Cn2ccc(N)nc2=O)C(=O)Cn2cnc3c(N)ncnc32)C(=O)Cn2cnc3c(=O)[nH]c(N)nc32)C(=O)Cn2ccc(N)nc2=O)C(=O)Cn2cnc3c(N)ncnc32)C(=O)Cn2ccc(N)nc2=O)c(=O)[nH]c1=O`, the inhibition entry in the assay on T47D [4], with T47D [5], in the assay with T47D [6] and in the assay with T47D [7] was “inactive” each time. Also, the result in the assay on T47D [1], in the assay on T47D [2] and with T47D [3] was inactive.

Consider `Cc1cn(CC(=O)N(CCNC(=O)CNC(=O)[C@@H](N)CCCCN)CC(=O)NCCN(CC(=O)NCCN(CC(=O)NCCN(CC(=O)NCCN(CC(=O)NCCN(CC(=O)NCCN(CC(=O)NCCN(CC(=O)NCCN(CC(=O)NCCN(CC(=O)NCCN(CC(=O)NCCN(CC(=O)NCCN(CC(=O)NCCN(CC(=O)NCCN(CC(=O)NCCN(CC(=O)NCCN(CC(=O)NCCN(CC(=O)NCCN(CC(=O)N[C@@H](CCCCN)C(=O)O)C(=O)Cn2ccc(N)nc2=O)C(=O)Cn2cnc3c(=O)[nH]c(N)nc32)C(=O)Cn2cnc3c(=O)[nH]c(N)nc32)C(=O)Cn2cnc3c(N)ncnc32)C(=O)Cn2cnc3c(N)ncnc32)C(=O)Cn2cnc3c(=O)[nH]c(N)nc32)C(=O)Cn2cc(C)c(=O)[nH]c2=O)C(=O)Cn2ccc(N)nc2=O)C(=O)Cn2cnc3c(=O)[nH]c(N)nc32)C(=O)Cn2cnc3c(N)ncnc32)C(=O)Cn2cnc3c(=O)[nH]c(N)nc32)C(=O)Cn2cc(C)c(=O)[nH]c2=O)C(=O)Cn2ccc(N)nc2=O)C(=O)Cn2cnc3c(N)ncnc32)C(=O)Cn2cnc3c(=O)[nH]c(N)nc32)C(=O)Cn2cc(C)c(=O)[nH]c2=O)C(=O)Cn2cnc3c(N)ncnc32)C(=O)Cn2ccc(N)nc2=O)c(=O)[nH]c1=O`, for which the inhibition at 0.2 µM in the assay on T47D [4] and in the assay with T47D [5] was 75% each time. The outcome in the assay on T47D [1] and in the assay on T47D [3] was Active. In the assay with T47D [2], the “fold change (FC)” value worked out at 6. Moreover, the inhibition entry in the assay on T47D [8] and in the assay with T47D [9] was “Active” in each case. The inhibition result with T47D [6] and with T47D [7] was “inactive” in each case.

Regarding `Cc1cn([C@H]2C[C@H](OP(=O)(O)OC[C@H]3O[C@@H](n4cc(C)c(=O)[nH]c4=O)C[C@@H]3O)[C@@H](COP(=O)(O)O[C@H]3[C@@H](O)[C@H](n4ccc(=O)[nH]c4=O)O[C@@H]3COP(=O)(O)O[C@H]3[C@@H](O)[C@H](n4ccc(N)nc4=O)O[C@@H]3COP(=O)(O)O[C@H]3[C@@H](O)[C@H](n4cnc5c(N)ncnc54)O[C@@H]3COP(=O)(O)O[C@H]3C[C@H](n4cnc5c(N)ncnc54)O[C@@H]3COP(=O)(O)O[C@H]3[C@@H](O)[C@H](n4ccc(N)nc4=O)O[C@@H]3COP(=O)(O)O[C@H]3C[C@H](n4cnc5c(N)ncnc54)O[C@@H]3COP(=O)(O)O[C@H]3[C@@H](O)[C@H](N4CC=C(N)NC4=O)O[C@@H]3COP(=O)(O)O[C@H]3[C@@H](O)[C@H](n4cnc5c(=O)[nH]c(N)nc54)O[C@@H]3COP(=O)(O)O[C@H]3[C@@H](O)[C@H](n4cnc5c(N)ncnc54)O[C@@H]3COP(=O)(O)O[C@H]3[C@@H](O)[C@H](N4CC=C(N)NC4=O)O[C@@H]3COP(=O)(O)O[C@H]3[C@@H](O)[C@H](n4cnc5c(=O)[nH]c(N)nc54)O[C@@H]3COP(=O)(O)O[C@H]3[C@@H](O)[C@H](n4cnc5c(=O)[nH]c(N)nc54)O[C@@H]3COP(=O)(O)O[C@H]3[C@@H](O)[C@H](n4cnc5c(=O)[nH]c(N)nc54)O[C@@H]3COP(=O)(O)O[C@H]3C[C@H](n4cnc5c(N)ncnc54)O[C@@H]3COP(=O)(O)O[C@H]3[C@@H](O)[C@H](n4cnc5c(N)ncnc54)O[C@@H]3COP(=O)(O)O[C@H]3[C@@H](O)[C@H](n4cnc5c(=O)[nH]c(N)nc54)O[C@@H]3COP(=O)(O)O[C@H]3[C@@H](O)[C@H](n4cnc5c(=O)[nH]c(N)nc54)O[C@@H]3COP(=O)(O)O[C@H]3[C@@H](O)[C@H](n4ccc(=O)[nH]c4=O)O[C@@H]3COP(=O)(O)O[C@H]3[C@@H](O)[C@H](n4cnc5c(N)ncnc54)O[C@@H]3CO)O2)c(=O)[nH]c1=O`, the outcome in the assay with T47D [1] and with T47D [3] was Active.
